Data from patent US7414061B2, “Aryl-isoxazol-4-yl-imidazole derivatives” (Hoffmann-La Roche Inc., priority 2005, dated 2008).

target: T1, GABA A receptor α5β3γ2 (hα5) (Homo sapiens, UniProt P18507+P31644); assay: [3H]flumazenil competition binding assay, human GABA A α5β3γ2; details: not given
T1 construct: expressed in transfected cells; host or cells: HEK293 (transiently transfected), membrane preparation
Experimental: The affinity of compounds at GABA A receptor subtypes was measured by competition for [3H]flumazenil (85 Ci/mmol; Roche) binding to HEK293 cells expressing rat (stably transfected) or human (transiently transfected) receptors of composition α1β3γ2, α2β3γ2, α3β3γ2 and α5β3γ2.
Cell pellets were suspended in Krebs-tris buffer (4.8 mM KCl, 1.2 mM CaCl2, 1.2 mM MgCl2, 120 mM NaCl, 15 mM Tris; pH 7.5; binding assay buffer), homogenized by polytron for ca. 20 sec on ice and centrifuged for 60 min at 4° C. (50000 g; Sorvall, rotor: SM24=20000 rpm). The cell pellets were resuspended in Krebs-tris buffer and homogenized by polytron for ca. 15 sec on ice. Protein was measured (Bradford method, Bio-Rad) and aliquots of 1 mL were prepared and stored at −80° C.
Radioligand binding assays were carried out in a volume of […] (96-well plates) which contained […] of cell membranes, [3H]flumazenil at a concentration of 1 nM for α1, α2, α3 subunits and 0.5 nM for α5 subunits and the test compound in the range of […]. Nonspecific binding was defined by 10^−5 M diazepam and typically represented less than 5% of the total binding. Assays were incubated to equilibrium for 1 hour at 4° C. and harvested onto GF/C uni-filters (Packard) by filtration using a Packard harvester and washing with ice-cold wash buffer (50 mM Tris; pH 7.5). After drying, filter-retained radioactivity was detected by liquid scintillation counting. Ki values were calculated using Excel-Fit (Microsoft) and are the means of two determinations.

Molecule | Ki
C#CCNC(=O)c1ccc(-n2cnc(-c3c(-c4ccccc4)noc3C)c2)cc1 [Example 72, 4-[4-(5-Methyl-3-phenyl-isoxazol-4-yl)-imidazol-1-yl]-N-prop-2-ynyl-benzamide] | 13.2 nM

same assay, conditions: displacement of [3H]flumazenil (0.5 nM) from HEK293 cell membranes expressing α5β3γ2; means of two determinations; read-out: Ki[nM] hα5

Molecule | Ki
Cc1onc(-c2ccccc2)c1-c1cn(-c2ccccc2)c(COCc2ccccc2)n1 [Example 146, 4-(2-Benzyloxymethyl-1-phenyl-1H-imidazol-4-yl)-5-methyl-3-phenyl-isoxazole] | 17.1 nM
C#CCNC(=O)c1ccc(-n2cnc(-c3c(-c4cccc(F)c4)noc3C)c2)cc1 [Example 97, 4-{4-[3-(3-Fluoro-phenyl)-5-methyl-isoxazol-4-yl]-imidazol-1-yl}-N-prop-2-ynyl-benzamide] | 10 nM
Cc1onc(-c2ccccc2)c1-c1cn(-c2ccc(C(F)(F)F)cc2)c(COCc2ccccc2)n1 [Example 64, 4-[2-Benzyloxymethyl-1-(4-trifluoromethyl-phenyl)-1H-imidazol-4-yl]-5-methyl-3-phenyl-isoxazole] | 14.7 nM
Cc1onc(-c2ccccc2)c1-c1cn(-c2ccc(C(=O)NCc3cccnc3)cc2)cn1 [Example 78, 4-[4-(5-Methyl-3-phenyl-isoxazol-4-yl)-imidazol-1-yl]-N-pyridin-3-ylmethyl-benzamide] | 12.8 nM
Cc1onc(-c2ccccc2)c1-c1cn(-c2ccc(F)cc2)cn1 [Example 3, 4-[1-(4-Fluoro-phenyl)-1H-imidazol-4-yl]-5-methyl-3-phenyl-isoxazole] | 29.6 nM
Cc1onc(-c2ccc(Br)cc2)c1-c1cn(-c2ccc([N+](=O)[O-])cc2)cn1 [Example 50, 3-(4-Bromo-phenyl)-5-methyl-4-[1-(4-nitro-phenyl)-1H-imidazol-4-yl]-isoxazole] | 21.6 nM
Cc1onc(-c2ccccc2)c1-c1cn(-c2ccc([N+](=O)[O-])cc2)c(COCc2ccccc2F)n1 [Example 160, 4-[2-(2-Fluoro-benzyloxymethyl)-1-(4-nitro-phenyl)-1H-imidazol-4-yl]-5-methyl-3-phenyl-isoxazole] | 12.7 nM
Cc1onc(-c2ccccc2)c1-c1cn(-c2ccc(C(=O)NCc3ccncc3)cc2)cn1 [Example 79, 4-[4-(5-Methyl-3-phenyl-isoxazol-4-yl)-imidazol-1-yl]-N-pyridin-4-ylmethyl-benzamide] | 14 nM
Cc1onc(-c2ccccc2F)c1-c1cn(-c2ncccn2)cn1 [Example 39, 2-{4-[3-(2-Fluoro-phenyl)-5-methyl-isoxazol-4-yl]-imidazol-1-yl}-pyrimidine] | 18.3 nM
COc1ccc(-n2cnc(-c3c(-c4ccccc4F)noc3C)c2)cc1 [Example 38, 3-(2-Fluoro-phenyl)-4-[1-(4-methoxy-phenyl)-1H-imidazol-4-yl]-5-methyl-isoxazole] | 24 nM
CC(=O)c1ccc(-n2cnc(-c3c(-c4ccc(F)cc4)noc3CO)c2)cc1 [Example 140, 1-(4-{4-[3-(4-Fluoro-phenyl)-5-hydroxymethyl-isoxazol-4-yl]-imidazol-1-yl}-phenyl)-ethanone] | 9.8 nM
O=[N+]([O-])c1ccc(-n2cnc(-c3c(-c4ccccc4)noc3C3CC3)c2)cc1 [Example 136, 5-Cyclopropyl-4-[1-(4-nitro-phenyl)-1H-imidazol-4-yl]-3-phenyl-isoxazole] | 1.71 nM
Cc1onc(-c2ccccc2)c1-c1cn(-c2ccc([N+](=O)[O-])cc2)c(CCl)n1 [Example 148, 4-[2-Chloromethyl-1-(4-nitro-phenyl)-1H-imidazol-4-yl]-5-methyl-3-phenyl-isoxazole] | 23.3 nM
Cc1onc(-c2ccccc2)c1-c1cn(-c2ccc([N+](=O)[O-])cc2)c(C=O)n1 [Example 149, 4-(5-Methyl-3-phenyl-isoxazol-4-yl)-1-(4-nitro-phenyl)-1H-imidazole-2-carbaldehyde] | 29.9 nM
Cc1onc(-c2ccccc2)c1-c1cn(-c2ccc([N+](=O)[O-])cc2)cn1 [Example 13, 5-Methyl-4-[1-(4-nitro-phenyl)-1H-imidazol-4-yl]-3-phenyl-isoxazole] | 11.9 nM
5-Ethyl-4-[1-(4-nitro-phenyl)-1H-imidazol-4-yl]-3-phenyl-isoxazole [Example 31] | 5 nM
CC(=O)c1ccc(-n2cnc(-c3c(-c4ccc(F)cc4)noc3C)c2)cc1 [Example 46, 1-(4-{4-[3-(4-Fluoro-phenyl)-5-methyl-isoxazol-4-yl]-imidazol-1-yl}-phenyl)-ethanone] | 4.7 nM
Cc1ccc(-n2cnc(-c3c(-c4ccc(F)cc4)noc3C)c2)cc1[N+](=O)[O-] [Example 131, 3-(4-Fluoro-phenyl)-5-methyl-4-[1-(4-methyl-3-nitro-phenyl)-1H-imidazol-4-yl]-isoxazole] | 21.5 nM
4-{4-[3-(3-Fluoro-phenyl)-5-methyl-isoxazol-4-yl]-imidazol-1-yl}-N-[2-(1H-imidazol-4-yl)-ethyl]-benzamide [Example 104] | 31.5 nM

Molecule | Ki
Cc1onc(-c2ccccc2)c1-c1cn(-c2cccc(F)c2)cn1 [Example 4, 4-[1-(3-Fluoro-phenyl)-1H-imidazol-4-yl]-5-methyl-3-phenyl-isoxazole] | 33.1 nM
Cc1onc(-c2ccccc2)c1-c1cn(-c2ccccn2)cn1 [Example 32, 2-[4-(5-Methyl-3-phenyl-isoxazol-4-yl)-imidazol-1-yl]-pyridine] | 19.3 nM
CCc1onc(-c2ccc(F)cc2)c1-c1cn(-c2ccc(C(F)(F)F)cc2)cn1 [Example 133, 5-Ethyl-3-(4-fluoro-phenyl)-4-[1-(4-trifluoromethyl-phenyl)-1H-imidazol-4-yl]-isoxazole] | 29.8 nM
Cc1onc(-c2ccccc2)c1-c1cn(-c2ccc([N+](=O)[O-])cc2)c(COCc2cccnc2)n1 [Example 163, 3-[4-(5-Methyl-3-phenyl-isoxazol-4-yl)-1-(4-nitro-phenyl)-1H-imidazol-2-ylmethoxymethyl]-pyridine] | 9.5 nM
Cc1onc(-c2ccccc2)c1-c1cn(-c2ccc(C(=O)NC3CC3)cc2)cn1 [Example 74, N-Cyclopropyl-4-[4-(5-methyl-3-phenyl-isoxazol-4-yl)-imidazol-1-yl]-benzamide] | 5.1 nM
Cc1onc(-c2ccc(F)cc2)c1-c1cn(-c2cccc(F)c2)cn1 [Example 119, 3-(4-Fluoro-phenyl)-4-[1-(3-fluoro-phenyl)-1H-imidazol-4-yl]-5-methyl-isoxazole] | 33.7 nM
Cc1onc(-c2ccccc2)c1-c1cn(-c2cccc(C(=O)NC3CC3)c2)cn1 [Example 84, N-Cyclopropyl-3-[4-(5-methyl-3-phenyl-isoxazol-4-yl)-imidazol-1-yl]-benzamide] | 31.8 nM
Cc1onc(-c2ccc(Br)cc2)c1-c1cn(-c2ncccn2)cn1 [Example 51, 2-{4-[3-(4-Bromo-phenyl)-5-methyl-isoxazol-4-yl]-imidazol-1-yl}-pyrimidine] | 28.5 nM
CC(=O)c1ccc(-n2cnc(-c3c(-c4ccccc4F)noc3C)c2)cc1 [Example 36, 1-(4-{4-[3-(2-Fluoro-phenyl)-5-methyl-isoxazol-4-yl]-imidazol-1-yl}-phenyl)-ethanone] | 7.8 nM
CC(=O)c1ccc(-n2cnc(-c3c(-c4ccc(Br)cc4)noc3C)c2)cc1 [Example 49, 1-(4-{4-[3-(4-Bromo-phenyl)-5-methyl-isoxazol-4-yl]-imidazol-1-yl}-phenyl)-ethanone] | 9.1 nM
Cc1onc(-c2ccccc2)c1-c1cn(-c2ccc([N+](=O)[O-])cc2)c(CO)n1 [Example 147, [4-(5-Methyl-3-phenyl-isoxazol-4-yl)-1-(4-nitro-phenyl)-1H-imidazol-2-yl]-methanol] | 18.1 nM
Cc1cccc(-n2cnc(-c3c(-c4ccc(F)cc4)noc3C)c2)c1 [Example 118, 3-(4-Fluoro-phenyl)-5-methyl-4-(1-m-tolyl-1H-imidazol-4-yl)-isoxazole] | 29 nM
Cc1onc(-c2ccccc2)c1-c1cn(-c2ncccn2)cn1 [Example 33, 2-[4-(5-Methyl-3-phenyl-isoxazol-4-yl)-imidazol-1-yl]-pyrimidine] | 15 nM
Cc1onc(-c2ccccc2)c1-c1cn(-c2cccc(C(F)(F)F)c2)cn1 [Example 10, 5-Methyl-3-phenyl-4-[1-(3-trifluoromethyl-phenyl)-1H-imidazol-4-yl]-isoxazole] | 20.4 nM
CCCc1ccc(-n2cnc(-c3c(-c4ccccc4)noc3C)c2)cc1 [Example 9, 5-Methyl-3-phenyl-4-[1-(4-propyl-phenyl)-1H-imidazol-4-yl]-isoxazole] | 25.5 nM
Cc1onc(-c2ccc(F)cc2)c1-c1cn(-c2ccc([N+](=O)[O-])cc2)cn1 [Example 47, 3-(4-Fluoro-phenyl)-5-methyl-4-[1-(4-nitro-phenyl)-1H-imidazol-4-yl]-isoxazole] | 16.6 nM
Cc1onc(-c2ccccc2)c1-c1cn(-c2ccc(C(F)(F)F)cc2)cn1 [Example 14, 5-Methyl-3-phenyl-4-[1-(4-trifluoromethyl-phenyl)-1H-imidazol-4-yl]-isoxazole] | 30.7 nM
CCOc1ccccc1-n1cnc(-c2c(-c3ccccc3)noc2C)c1 [Example 20, 4-[1-(2-Ethoxy-phenyl)-1H-imidazol-4-yl]-5-methyl-3-phenyl-isoxazole] | 32.4 nM
